Key:
[1] = tested on: Loblolly pine megagametophytes containing immature zygotic embryos; test: Effect of carbon source on induction of loblolly pine; assay type: cell-based, Pinus taeda (loblolly pine)
Description: Female gametophytes containing the immature zygotic embryos were used as explants. The cones were surface sterilized in 10% bleach solution for 15 min. They were rinsed 3 times with sterile water, air dried and stored in polyethylene bags at 4° C. until used. Seeds were sterilized in 3% hydrogen peroxide containing 0.1% Tween 20 and rinsed in sterile deionized water. Megagametophytes containing the immature embryos were plated on TX medium (Table A) supplemented with 2.2 mg/l 2,4-D, 1 mg/l BA and 0.3% Phytagel and containing either 1% sucrose, or 1.5% lactose and 0.025% glucose.
Cultures were maintained on the two media by subculturing the embryogenic tissue every 10 to 14 days to fresh media. All cultures were incubated at 23° C. in the dark.

[2] = tested on: loblolly pine embryogenic tissue; test: Effect of carbon source on solid maintenance of loblolly pine; assay type: cell-based, Pinus taeda (loblolly pine); details: semi-solid TX medium; 1% sucrose, or 1.5% lactose and 0.025% glucose
Description: Tissue induced on sucrose from Example 1 was further maintained on the semi-solid TX medium containing 1% sucrose, and tissue induced on lactose was maintained on semi-solid TX medium containing 1.5% lactose and 0.025% glucose. The tissue morphology of the lines induced on lactose was different from the ones induced on sucrose. […] In order to further increase the proliferation rate, 0.5% sucrose was added to the TX 1.5% lactose-containing medium in place of 0.025% glucose. This medium provided a reasonable bulk-up rate, and growth of embryos was more synchronized than in the 1% sucrose medium.

[3] = tested on: Suspension cultures of loblolly lines LP1, LP2, LP3, LP4 and LP5; test: Effect of carbon source on liquid maintenance: growth rate and yield of somatic embryos; assay type: cell-based, Pinus taeda (loblolly pine); details: 1% sucrose
Description: Suspension cultures of loblolly lines LP1, LP2, LP3, LP4 and LP5 were started with 2 g of tissue introduced to 50 ml of TX liquid medium containing different sugars—1% sucrose, 1.5% maltose, or 1.5% lactose. These cultures were maintained in the same liquid media for 2 weeks by weekly transfers to fresh maintenance medium containing the above sugars. Then, 2 g of tissue produced in each maintenance medium was transferred to prematuration media I, containing the same carbon source as the maintenance media. After one week, 1.5 g of tissue from each prematuration medium I was transferred to prematuration media II containing the same sugars. After the 4 week period in liquid media, early stage somatic embryos were collected and plated on ½ LV maturation medium containing 120 μM ABA and 6.0% sucrose and 1% Phytagel. Eight to ten weeks later, mature somatic embryos were counted and treatments were evaluated based on the number of somatic embryos per gram fresh weight (SE/g FW). Table 2 summarises the tissue yield at the end of the 4-week period and the number of mature somatic embryos produced for each line.

[4] = tested on: loblolly pine lines LP2, LP3 and LP4; test: Effect of lactose during the prematuration steps; assay type: cell-based, Pinus taeda (loblolly pine); details: 1% sucrose maintenance
Description: Prematuration for loblolly pine may be performed in two steps: • 1. Prematuration I requires reduction of hormones either by reducing the auxin and cytokinin concentrations to optimally about 1/20 of the concentration of proliferation step, or by adding charcoal at about 0.01 to 1%, or a combination of both. • 2. Prematuration II follows prematuration I and requires an addition of ABA at concentrations of about 5 to 120 μM, preferably 90 μM and no auxin and cytokinins.
In order to further understand the effect of lactose on somatic embryo development, liquid maintenance cultures were started in TX medium containing 1% sucrose as in Example 3. Three lines were used in this experiment, LP2, LP3 and LP4. After the proliferation step, 2 g of the tissue was transferred for one week to prematuration medium I containing different concentrations of lactose—1.5%, 3% and 6%. After that, 1.5 g of tissue produced in the lactose-containing media was further cultured for a week in prematuration medium II containing the same amount of lactose. 3.

[5] = tested on: loblolly pine lines LP1 and LP3; test: Effect of galactose and galactose-containing sugars during proliferation and prematuration on SE yield; assay type: cell-based, Pinus taeda (loblolly pine); design: Amount of tissue at the end of the preculture II stage: unit not given here; details: for # SE/g FW / Amount of tissue at the end of the preculture II stage: 1% sucrose, 1.5% maltose, 1.5% lactose or 0.75% galactose
Description: The finding that loblolly pine cultures were capable of utilising galactose is unique. In order to further investigate these phenomenon two lines, LP1 and LP3, were cultured on semi-solid TX medium containing 1.0% lactose and 0.5% sucrose. Cultures were maintained by subculturing the embryogenic tissue every 10 to 14 days to fresh media. All cultures were incubated at 23° C. in the dark. Suspension cultures were initiated as described in Example 3, however, TX medium was supplemented with either 1% sucrose, 1.5% maltose, 1.5% lactose, or 0.75% galactose. These cultures were maintained in liquid media for 4 weeks by weekly transfers to fresh maintenance or prematuration media. After the 4˜week period, 1 ml of the liquid medium containing 0.1 g of tissue consisting of early stage somatic embryos was plated on each […] plates containing ½ LV maturation medium. This medium contained 120 μM ABA and 6.0% sucrose and 1% Phytagel. Eight to ten weeks later, mature somatic embryos were counted and treatments were evaluated based on the number of somatic embryos per gram fresh weight (Table 5).

[6] = tested on: Douglas fir embryogenic tissue, cell line DF-2; test: Effects of carbohydrates on liquid maintenance of Douglas fir embryogenic tissue; assay type: cell-based, Pseudotsuga menziesii (Douglas fir); details: 3 weeks suspension maintenance/bulking-up, 0.5% galactose, 1% lactose, 0.5% mannitol
Description: The culture medium for Douglas fir was TX medium (see Table A) with the following additives: glutamine 100 mg., Casein hydrolysate 100 mg., and pH 5.8. The following compounds were added into the basal medium for Douglas fir somatic embryo development at different stages: • 1) Induction medium: 18 μM 2,4-D and 9 μM BA, phytagel 0.28%, sucrose 1% • 2) Solid maintenance medium: 9 μM 2,4-D and 4.5 μM BA, phytagel 0.28%, sucrose 1%. • 3) Liquid maintenance and bulking-up medium: 9 μM 2,4-D and 4.5 μM BA, different carbon sources for experiments. • 4) Liquid pre-treatment medium: 20 (first week) or 30 μM ABA (second week), 10% PEG4000 (first week) or PEG1500 (second week), different carbon sources as described in examples below. • 5) Solid maturation media: TX (Table A) plus 0.02% NH4NO3 • Medium I. 40 μM ABA, 10% PEG 1500, maltose 2.5%, phytagel 0.6% • Medium II. 60 μM ABA, 10% PEG1500, maltose 2.5% and sucrose 1%, phytagel 0.8% • Medium III. 70 μM ABA, 6% PEG1500, sucrose 6%, phytagel 1%.
Embryogenic tissue was induced from immature zygotic embryos. The cones and seeds were surface-sterilised as described for pines, and embryos were dissected out from megagametophytes. The embryos, with the attachment of suspensors to their megagametophytes, were placed on the surface of induction medium. The culture was kept in darkness at 23° C. Embryogenic tissue was sub-cultured once every two weeks onto solid maintenance medium.
Embryogenic tissue of Douglas fir was collected from solid maintenance culture and one gram of tissue was transferred into a 200 ml flask containing 50 ml TX (see Table A) liquid maintenance medium. The liquid maintenance medium was supplied with different sugars (Table 8).
The tissue was drained, weighed and sub-cultured once per week. During a culture period of three weeks, the highest tissue growth was found in the culture with glucose as the major carbon source. The media containing sucrose, maltose and galactose also supported a fast tissue growth. With these latter sugars, tissue increased to 68 to 100 fold in three weeks. Tissue grew little in the media containing lactose or mannitol. […] Similar results were obtained within two cell lines, DF-7A and DF-2.

[7] = tested on: Douglas fir embryogenic tissue; test: Medium osmolarity before and after one-week tissue inoculation; assay type: cell-based, Pseudotsuga menziesii (Douglas fir); details: medium with 0.5% galactose, 1% lactose, 0.5% mannitol or 0.5% glucose
Excerpt: More change of medium osmolarity occurred during week 2 than week 1. The medium osmolarity changed little when lactose or mannitol was used in the media.

[8] = then 1.5% lactose in prematuration I and II
[9] = then 3% lactose in prematuration I and II
[10] = then 6% lactose in prematuration I and II

- Osmolarity before inoculation (mmol/kg, mean ± SD) [7]: 93.33 ± 0.58 mmol/kg
SMILES: OC[C@H]1O[C@@H](O[C@H]2[C@H](O)[C@@H](O)C(O)O[C@@H]2CO)[C@H](O)[C@@H](O)[C@H]1O (stereo partly drawn) [Lactose]
- Induction success, lactose medium compared with sucrose medium [1]: greater than three times higher
- tissue morphology [2]: more early-stage immature embryos and a limited amount of suspensor type of surrounding tissue
- # SE/g FW ± sd ([3]; 1.5% maltose or 1.5% lactose for 4 weeks in liquid, then 8-10 weeks on 1/2 LV maturation medium): 393 ± 10 SE/g FW
- Average amount of tissue produced after 4 weeks in liquid (FW g) ([3]; 1.5% maltose or 1.5% lactose in maintenance and prematuration I and II, started with 2 g): 18.63 g
- Mean # SE/g FW ± sd [4, 8]: 106 ± 9 SE/g FW
- Mean grams FW at the end of prematuration stage [4, 8]: 121.90 g
- Mean # SE/g FW ± sd [4, 9]: 209 ± 7 SE/g FW
- Mean grams FW at the end of prematuration stage [4, 9]: 216.47 g
- Mean # SE/g FW ± sd [4, 10]: 169 ± 10 SE/g FW
- Mean grams FW at the end of prematuration stage [4, 10]: 149.13 g
- embryos produced ([5]; line LP1, as stated in the text): over 1000 embryos
- # SE/g FW ([5]; line LP1): 1060 ± 17 SE/g FW
- Amount of tissue at the end of the preculture II stage ([5]; line LP1): 28.9
- # SE/g FW ([5]; line LP3): 110 ± 7 SE/g FW
- Amount of tissue at the end of the preculture II stage ([5]; line LP3): 8.78
- Tissue growth (fold, mean ± SD) ([6]; additional glucose 0%, 0.5% glucose, 1% sucrose, 1% maltose): 1.40 ± 0.14 fold
- Tissue growth (fold, mean ± SD) ([6]; additional glucose 0.025%): 2.75 ± 0.24 fold
